We go through 22 compounds from patent publication US5393761A, “3-arylindole compounds” (H. Lundbeck A/S, priority 1990, dated 1995).

Structures can show the parent of a compound that is named as a salt.

Experiment [1] has as its target T1, serotonin S2 (5-HT2) receptors in rat cortex (Rattus norvegicus, UniProt P14842).
T1 construct: Serotonin S2 (5-HT2) receptors in membranes from rat; from tissue; host or cells: cerebral cortex membranes of male Wistar rats (printed 'conical tissue', a misprint for cortical)
In words: Inhibition of ^3H-ketanserin binding to serotonin S2 (5-HT2) receptors in rat cortex in vitro. The following applies: 0.5 nM ^3H-ketanserin, rat cortex membranes, 37° C., 30 min. On the procedure:
Method in Hyttel, Pharmacology & Toxicology, 61, 126-129, 1987.
Male Wistar (Mol:Wist) rats (125-250 g) are sacrificed and conical tissue is dissected and weighed. The tissue is homogenized (Ultra Turrax, 10 sec.) in 10 ml of ice-cold 50 mM tris buffer pH 7.7 (at 25° C.). The centrifuge glassware used in this step has been rinsed by sonication for 10 min. in ethanol. The homogenate is centrifuged twice at 20,000 g for 10 min. at 4° C. with rehomogenization of the pellet in 10 ml ice-cold buffer. The final pellet is homogenized in 500 vol (w/v)ice-cold buffer.
Incubation tubes kept on ice in triplicate receive 100 μl Of drug solution in water (or water for total binding) and 2000 μl of tissue suspension (final tissue content corresponds to 4 mg original tissue). […] After incubation for 30 min. the samples are filtered under vacuum (0-50 mBar) through Whatman GF/F filters (25 mm). The tubes are rinsed with 5 ml ice-cold buffer which are then poured on the filters. Thereafter, the filters are washed with 2×5 ml of buffer. The filters are placed in counting vials and 4 ml of appropriate scintillation fluid (e.g. Picofluor ™15) are added. After shaking for 1 h and storage 2 hrs in the dark the content of radioactivity is determined by liquid scintillation counting. Specific binding is obtained by subtracting the nonspecific binding in the presence of 1 μM mianserin. For determination of the inhibition of binding five concentrations of drugs covering 3 decades are used.
The IC50 value is determined as the concentration at which the binding is 50% of the total binding in control samples minus the nonspecific binding in the presence of 1 μM mianserin.

Experiment [2] deals with dopamine D-2 receptors in rat corpus striatum (Rattus norvegicus, UniProt P61169). Put plainly: Inhibition of ^3H-spiperone (spiroperidol) binding to dopamine D-2 receptors in rat corpus striatum in vitro. As to conditions: 0.5 nM ^3H-spiperone, rat striatum membranes, 37° C., 10 min. On the procedure:
By this method the inhibition by drugs of the binding of ^3 H-spiperone (=^3 H-spiroperidol) (0.5 nM) to dopamine D-2 receptors in membranes from rat corpus striatum is determined in vitro. Method and results in Hyttel & Larsen, J. Neurochem, 44, 1615-1622, 1985).
Male Wistar (Mol:Wistar) rats (125-250 g) are sacrificed and striatal tissue is dissected and weighed. The tissue is homogenized (Ultra Turrax, 10 sec.) in 10 ml of ice-cold 50 mM K-phosphate buffer pH 7.4 (at 25° C.). The homogenate is centrifuged twice at 20,000 g for 10 min. at 4° C. with rehomogenization of the pellet in 10 ml ice-cold buffer. The final pellet is homogenized in 1300 vol (w/v) ice-cold buffer.
Incubation tubes kept on ice in triplicate receive 100 μl of drug solution in water (or water for total binding) and 4000 μl Of tissue suspension (final tissue content corresponds to 3.08 mg original tissue). The binding experimental is initiated by addition of 100 μl of ^3 H-spiperone (final concentration 0.5 nM) and by placing the tubes in a 37° C. water bath. After incubation for 10 min. the samples are filtered under vacuum (0-50 mBar) through Whatman GF/F filters (25 mm). The tubes are rinsed with 5 ml ice-cold buffer which are then poured on the filters. Thereafter, the filters are washed with 2×5 ml of buffer. The filters are placed in counting vials and 4 ml of appropriate scintillation fluid (e.g. Picofluor ™15) are added. After shaking for 1 h and storage 2 hrs in the dark the content of radioactivity is determined by liquid scintillation counting. Specific binding is obtained by subtracting the nonspecific binding in the presence of 10 μM of 6,7-ADTN.
For determination of the inhibition of binding five concentrations of drugs covering 3 decades are used.
The measured cpm are plotted against drug concentration on semilogarithmic paper and the best fitting S-shaped curve is drawn. […] England, specific activity 15-25 Ci/mmol.

For experiment [3] the following is noted: literature (Colpart et al. 1985); cited from earlier work.
The conditions of experiment [4]: literature (Janssen 1988); cited from earlier work.
For experiment [5] the following is noted: literature (Bersani et al. 1990); cited from earlier work.
For experiment [6] the following is noted: literature (Klieser, Strauss 1988); cited from earlier work.
For experiment [7] the following is noted: literature (Ceulemans et al. 1985); cited from earlier work.

T1 sequence (P14842 whole entry): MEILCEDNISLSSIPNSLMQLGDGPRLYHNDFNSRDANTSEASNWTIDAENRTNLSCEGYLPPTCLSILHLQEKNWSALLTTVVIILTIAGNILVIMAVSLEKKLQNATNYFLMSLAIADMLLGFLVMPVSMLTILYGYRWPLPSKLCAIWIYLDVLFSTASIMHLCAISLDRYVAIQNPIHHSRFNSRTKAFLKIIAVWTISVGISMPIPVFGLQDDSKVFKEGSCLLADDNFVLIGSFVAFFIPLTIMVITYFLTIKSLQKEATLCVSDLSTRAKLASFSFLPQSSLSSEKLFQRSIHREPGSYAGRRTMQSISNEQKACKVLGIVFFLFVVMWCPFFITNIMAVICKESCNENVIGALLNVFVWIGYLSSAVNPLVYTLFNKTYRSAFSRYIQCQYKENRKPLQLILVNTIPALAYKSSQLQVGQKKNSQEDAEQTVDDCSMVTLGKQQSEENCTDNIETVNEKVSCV
Chain of dopamine D-2 receptors in rat corpus striatum (P61169 whole entry): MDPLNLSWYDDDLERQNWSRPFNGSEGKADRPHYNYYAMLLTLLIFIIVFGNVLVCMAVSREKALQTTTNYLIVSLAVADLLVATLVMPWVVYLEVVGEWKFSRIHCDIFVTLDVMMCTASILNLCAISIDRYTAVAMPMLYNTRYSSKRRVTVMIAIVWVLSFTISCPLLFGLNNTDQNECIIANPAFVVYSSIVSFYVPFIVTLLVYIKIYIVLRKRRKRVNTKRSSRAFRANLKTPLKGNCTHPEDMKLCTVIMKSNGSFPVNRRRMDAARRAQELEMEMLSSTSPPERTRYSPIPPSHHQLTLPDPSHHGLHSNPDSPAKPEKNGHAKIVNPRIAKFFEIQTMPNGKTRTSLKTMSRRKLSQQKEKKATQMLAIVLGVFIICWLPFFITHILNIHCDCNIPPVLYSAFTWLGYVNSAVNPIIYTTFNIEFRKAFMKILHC

Regarding `Cc1ccc2c(c1)c(-c1ccc(F)cc1)c(C)n2C1=CCN(CCN2CCNC2=O)CC1` [Compound 6a, 2,5-Dimethyl-3-(4-fluorophenyl)-1-[1-[2-(imidazolidin-2-on-1-yl)ethyl]-1,2,3,6-tetrahydropyridin-4-yl]-1H-indole], the IC50 (as a rule, the concentration at which inhibition is half-maximal) in experiment [1] came to 2.8 nM; in experiment [2] it was 6300 nM.

Consider `Cc1ccc2c(c1)c(-c1ccc(F)cc1)c(C)n2C1=CCN(C)CC1` [Compound 6b, 2,5-Dimethyl-3-(4-fluorophenyl)-1-(1-methyl-1,2,3,6-tetrahydropyridin-4-yl)-1H-indole], for which the IC50 worked out at 3.8 nM in experiment [1] and 710 nM in experiment [2].

In the case of `Cc1ccc2c(c1)c(-c1ccc(F)cc1)cn2C1=CCN(CCN2CCNC2=O)CC1` [Compound 6c, 3-(4-Fluorophenyl)-1-[1-[2-(imidazolidin-2-on-1-yl)ethyl]-1,2,3,6-tetrahydropyridin-4-yl]-5-methyl-1H-indole], the IC50 stood at 1.4 nM in experiment [1] and 320 nM in experiment [2].

For `Cc1ccc2c(c1)c(-c1ccc(F)cc1)cn2C1=CCN(C)CC1` [Compound 6d, 3-(4-Fluorophenyl)-5-methyl-1-(1-methyl-1,2,3,6-tetrahydropyridin-4-yl)-1H-indole, maleate], the IC50 in experiment [1] came to 4.4 nM; in experiment [2], 32 nM.

For the compound `Cc1c(-c2ccccc2)c2cc(Cl)ccc2n1C1=CCN(C)CC1` [Compound 6e, 5-Chloro-2-methyl-1-(1-methyl-1,2,3,6-tetrahydropyridin-4-yl)-3-phenyl-1H-indole, oxalate], the IC50 in experiment [1] was determined as 9.4 nM; in experiment [2] it was 1000 nM.

On to `O=C1NCCN1CCN1CC=C(n2cc(-c3ccc(F)cc3)c3cc(C(F)(F)F)ccc32)CC1` [Compound 6f, 3-(4-Fluorophenyl)-1-[1-[2-(imidazolidin-2-on-1-yl)ethyl]-1,2,3,6-tetrahydropyridin-4-yl]-5-trifluoromethyl-1H-indole], for which the IC50 in experiment [1] was determined as 3.6 nM; in experiment [2], 440 nM.

For the compound `Cc1ccc2c(c1)c(-c1ccc(F)cc1)c(C)n2C1CCN(CCN2CCNC2=O)CC1` [Compound 7a, 2,5-Dimethyl-3-(4-fluorophenyl)-1-[1-[2-(imidazolidin-2-on-1-yl)ethyl]-4-piperidyl]-1H-indole], the IC50 was determined as 3.4 nM in experiment [1] and 6900 nM in experiment [2].

Turning to `O=C1NCCN1CCN1CCC(n2cc(-c3ccc(F)cc3)c3cc(C(F)(F)F)ccc32)CC1` [Compound 7b, 3-(4-Fluorophenyl)-1-[1-[2-(imidazolidin-2-on-1-yl)ethyl]-4-piperidyl]-5-trifluoromethyl-1H-indole], the values for the IC50 in experiment [1] and in experiment [2] were 6.2 nM and more than 1000 nM, respectively.

`Cc1c(-c2ccccc2)c2ccccc2n1C1CCN(CCN2CCNC2=O)CC1` [Compound 7c, 1-[1-[2-(Imidazolidin-2-on-1-yl)ethyl]-4-piperidyl]-2-methyl-3-phenyl-1H-indole]: the IC50 in experiment [1] came to 7.8 nM; in experiment [2] it was 5300 nM.

For `Cc1ccc2c(c1)c(-c1ccc(F)cc1)c(C)n2C1CCN(C)CC1` [Compound 9a, 2,5-Dimethyl-3-(4-fluorophenyl)-1-(1-methyl-4-piperidyl)-1H-indole], the values for the IC50 in experiment [1] and in experiment [2] were 5.3 nM and 2600 nM, respectively.

On to `Cc1c(-c2ccccc2)c2cc(Cl)ccc2n1C1CCN(C)CC1` [Compound 9b, 5-Chloro-2-methyl-3-phenyl-1-(1-methyl-4-piperidyl)-1H-indole], for which the values for the IC50 in experiment [1] and in experiment [2] were 17 nM and 2900 nM, respectively.

With `Cc1ccc2c(c1)c(-c1ccc(F)cc1)cn2C1CCN(C)CC1` [Compound 11a, 3-(4-Fluorophenyl)-5-methyl-1-(1-methyl-4-piperidyl)-1H-indole, fumarate], the IC50 in experiment [1] worked out at 4.5 nM; in experiment [2], 540 nM.

For `Cc1ccc2c(c1)c(-c1ccc(F)cc1)cn2C1CCN(CCNC(=S)N(C)C)CC1` [Compound 13a, 1-[1-[2-(3,3-Dimethyl-1-thioureido)ethyl]-4-piperidyl]-3-(4-fluorophenyl)-5-methyl-1H-indole], the results for the IC50 in experiment [1] and in experiment [2] were 3.7 nM and 250 nM, respectively.

Turning to `Cc1ccc2c(c1)c(-c1ccc(F)cc1)cn2C1CCN(CCNC(=O)N(C)C)CC1` [Compound 13b, 1-[1-[2-(3,3-Dimethyl-1-ureido)ethyl]-4-piperidyl]-3-(4-fluorophenyl)-5-methyl-1H-indole], the IC50 in experiment [1] amounted to 2.3 nM; in experiment [2] it was 260 nM.

For `CNC(=O)N(C)CCN1CCC(n2cc(-c3ccc(F)cc3)c3cc(C)ccc32)CC1` [Compound 15a, 1-[1-[2-(1,3-Dimethyl-1-ureido)ethyl]-4-piperidyl]-3-(4-fluorophenyl)-5-methyl-1H-indole, hydrochloride], the IC50 in experiment [1] is 1.8 nM; in experiment [2], more than 1000 nM.

`Cc1ccc2c(c1)c(-c1ccc(F)cc1)cn2C1CCN(CCO)CC1` [Compound 16a, 3-(4-Fluorophenyl)-1-[1-(2-hydroxyethyl)-4-piperidyl]-5-methyl-1H-indole, oxalate]: the IC50 in experiment [1] is 22 nM; in experiment [2] it was 1500 nM.

Turning to `Cc1ccc2c(c1)C(c1ccc(F)cc1)CN2C1CCN(CCN2CCNC2=O)CC1` (stereo not drawn) [Compound 18b, 2,3-Dihydro-3-(4-fluorophenyl)-1-[1-[2-(imidazolidin-2-on-1-yl)ethyl]-4-piperidyl]-5-methyl-1H-indole], the IC50 in experiment [1] was determined as 4.3 nM; in experiment [2] it was 1100 nM.

With `Cc1ccc2c(c1)c(-c1ccc(F)cc1)cn2N1CCN(C)CC1` [Compound 20a, 3-(4-Fluorophenyl)-5-methyl-1-(1-methylpiperazin-4-yl)-1H-indole], the 50% inhibitory concentration (IC50) stood at 13 nM in experiment [1] and 3900 nM in experiment [2].

Consider `CC(=O)N1CCN(CCN2CCC(n3cc(-c4ccc(F)cc4)c4cc(C)ccc43)CC2)C1=O` [Compound 21a, 1-[1-[2-(3-Acetylimidazolidin-2-on-1-yl)ethyl]-4-piperidyl]-3-(4-fluorophenyl)-5-methyl-1H-indole, oxalate], for which the IC50 was determined as 18 nM in experiment [1] and 890 nM in experiment [2].

For the compound `Cc1ccc2c(c1)c(-c1ccc(F)cc1)c(Cl)n2C1CCN(CCN2CCN(C(C)C)C2=O)CC1` [Compound 27a, 2-Chloro-3-(4-fluorophenyl)-5-methyl-1-[1-[2-[3-(2-propyl)imidazolidin-2-on-1-yl]ethyl]-4-piperidyl]-1H-indole], the IC50 came to 10 nM in experiment [1] and 3200 nM in experiment [2].

Consider `Cc1nc2sccn2c(=O)c1CCN1CCC(=C(c2ccc(F)cc2)c2ccc(F)cc2)CC1` [Ritanserin], for which the “anxiolytic-like effect (in words)” value in experiment [3] is “exert effects in an animal test reminiscent of anxiolytic drug activity”. For the same compound, the “quality of sleep (in words)” value in experiment [4] is recorded as “shown to improve the quality of sleep”. For the same compound, the “relief of neuroleptic-induced parkinsonism (in words)” value in experiment [5] is reported as “found to relieve neuroleptic-induced parkinsonism”. The “antidepressant effect and depressive symptoms of schizophrenia (in words)” value in experiment [6] was “shown to be an antidepressant and to improve depressive symptoms of schizophrenia”.

For `Cc1nc2n(c(=O)c1CCN1CCC(C(=O)c3ccc(F)cc3)CC1)CCS2` [setoperone], the “improvement of negative symptoms of schizophrenia (in words)” value in experiment [7] is recorded as “blockade of 5-HT2 receptors may be related to improvement of negative symptoms of schizophrenia”.
